# Measured values: US11530181B2, “IL-6 inhibitors and methods of treatment” (University of Florida Research Foundation, Incorporated, priority 2018, dated 2022)
# What was measured:
# [1] = system: CT-1 induced STAT3 phosphorylation; experiment: Western blot, CT-1 induced STAT3 phosphorylation in MCF7; assay type: cell-based, human; details: MCF7, 15 μM, time dependent
# Protocol: (§1) Cells were harvested and lysed in cold radioimmunoprecipitation assay (RIPA) lysis buffer containing proteasome inhibitor cocktail and phosphatase inhibitor cocktail. The protein concentrations were determined using the BCA Protein Assay kit. After adding the loading buffer and boiling at 95° C. for 10 minutes, equivalent amounts of proteins were loaded on and separated by SDS-PAGE, and then were transferred to PVDF membranes. Membranes were probed with primary antibodies (1:1000) against phospho-STAT3 (Tyr705), STAT3, phospho-STAT1 (Tyr701), STAT1, phospho-STAT6 (Tyr 641), STAT6, and GAPDH, respectively, and horseradish peroxidase (HRP)-conjugated secondary antibody (1:10000) (Cell Signaling Technology, Beverly, Mass.). Membranes were analyzed using Enhanced Chemiluminescence Plus reagents and either scanned with the Storm Scanner (Amersham Pharmacia Biotech, Inc., Piscataway, N.J.) or imaged with ChemiDoc MP imaging system (Bio-Rad, Hercules, Calif.). […] The cells were harvested after 30 minutes and analyzed by Western blot.
# (§2) MCF7 breast cancer cells were seeded in 10 cm plates (1 million cells per plate) and allowed to adhere overnight. […] The cells were harvested after 30 minutes and analyzed by western blotting.
# [2] = system: IL-11 induced STAT3 phosphorylation; experiment: Western blot, IL-11 induced STAT3 phosphorylation in MCF7; assay type: cell-based, human; details: MCF7, 15 μM, 2, 3 and 4 hours
# Protocol: as §1, §2
# [3] = system: STAT3 phosphorylation in BxPC-3 cells; experiment: Western blot, STAT3 phosphorylation in BxPC-3 (IL-6 autocrine); assay type: cell-based, human
# Protocol: as §1, with “Calif.). For cytokine induction of STAT3 phosphorylation, MCF-7 breast cancer cells were seeded in 10 cm plates (1 million cells per plate) and allowed to adhere overnight followed by serum-starvation.” for “Calif.).”
# BxPC-3 and SUM159 cells were seeded in 10 cm plates (1 million cells per plate) and allowed to adhere overnight. […] Then cells were harvested and analyzed by western blotting.
# gp130 = biological target: T1, gp130 (Homo sapiens, UniProt P40189); experiment: Drug Affinity Responsive Target Stability (DARTS) assay in SUM159 lysates; assay type: binding
# T1 construct: endogenous in cells; host or cells: SUM159 human breast cancer cells (lysate)
# Protocol: Human SUM159 breast cancer cells were lysed in cold radioimmunoprecipitation assay (RIPA) lysis buffer containing proteasome inhibitor cocktail and phosphatase inhibitor cocktail. Then lysates were incubated with escalating concentrations (10-1000 μM) of LLM418 or DMSO control at room temperature for 1 h. Proteolysis was followed by adding protease pronase solution at a ratio of 1 mg of pronase to 1000 mg (or 2000 mg) of lysate protein for 30 min, 20 min or 15 min at room temperature. To stop proteolysis, 4×SDS sample loading buffer was added at 1:3 ratio to each sample and boiled at 95° C. for 10 min. The resulted protein samples were separated by 8% SDS-PAGE gel and analyzed by western blotting. The DARTS assay is a method for studying the specific protein-ligand binding interactions. It is based on the principle that the target protein structure might be stabilized and become less susceptible to proteolysis by proteases upon drug binding [Lomenick B, Jung G, Wohlschlegel J, et al. Target identification using drug affinity responsive target stability (DARTS). Curr Protoc Chem Biol 2011, 3, 163-180; Lomenick B, Olsen R, Huang J. Identification of direct protein targets of small molecules. ACS Chem Biol. 2011, 6, 34-46]. It can be used to find the targeting protein of a small molecule by running SDS-gel without purifying any specific protein. […]
# T1 sequence (P40189 23-918): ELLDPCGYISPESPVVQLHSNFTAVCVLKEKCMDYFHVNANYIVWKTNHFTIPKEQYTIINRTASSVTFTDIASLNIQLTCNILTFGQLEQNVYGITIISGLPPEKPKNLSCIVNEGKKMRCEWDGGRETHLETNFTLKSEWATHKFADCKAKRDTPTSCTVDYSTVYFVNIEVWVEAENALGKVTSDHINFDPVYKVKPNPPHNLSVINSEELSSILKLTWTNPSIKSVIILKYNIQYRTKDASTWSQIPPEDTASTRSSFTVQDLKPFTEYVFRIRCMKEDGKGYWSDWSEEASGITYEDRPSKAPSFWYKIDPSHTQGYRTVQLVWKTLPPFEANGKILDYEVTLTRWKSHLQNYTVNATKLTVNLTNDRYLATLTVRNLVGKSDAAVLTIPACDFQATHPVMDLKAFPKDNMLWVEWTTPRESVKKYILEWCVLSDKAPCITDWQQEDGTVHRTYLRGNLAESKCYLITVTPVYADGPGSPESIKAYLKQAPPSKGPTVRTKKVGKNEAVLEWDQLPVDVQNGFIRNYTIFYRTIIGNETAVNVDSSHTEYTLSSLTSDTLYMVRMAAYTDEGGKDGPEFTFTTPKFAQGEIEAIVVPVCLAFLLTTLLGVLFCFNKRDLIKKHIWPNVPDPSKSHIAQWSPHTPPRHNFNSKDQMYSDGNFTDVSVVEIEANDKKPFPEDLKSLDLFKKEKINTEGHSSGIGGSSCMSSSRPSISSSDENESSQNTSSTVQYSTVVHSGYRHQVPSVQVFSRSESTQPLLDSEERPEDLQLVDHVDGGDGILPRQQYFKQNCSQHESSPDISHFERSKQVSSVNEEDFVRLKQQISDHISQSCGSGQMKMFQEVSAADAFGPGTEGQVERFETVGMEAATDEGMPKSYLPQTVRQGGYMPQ
smiles,measurement,setting,value
"O=C(Nc1cc(F)ccc1-n1cccc1)c1ccc(OCCCN2CCCCC2)cc1 [LLM4, N-(5-fluoro-2-(1H-pyrrol-1-yl)phenyl)-4-(3-(piperidin-1-yl)propoxy)benzamide]",CT-1 induced STAT3 phosphorylation,[1],minor influence
same,inhibition of IL-11 induced STAT3 phosphorylation,[2],also inhibited IL-11 induced STAT3 phosphorylation
same,inhibition of STAT3 phosphorylation,"[3]; BxPC-3, 20 μM",almost complete inhibition
same,inhibition of STAT3 phosphorylation,"[3]; BxPC-3, 5-20 μM, 16 h",inhibited STAT3 phosphorylation in BxPC-3 cells in a dose dependent manner
"O=C(Nc1ccccc1-c1ccn[nH]1)c1ccc(OCCN2CCCCC2)cc1 [LLM418, N-(2-(1H-pyrazol-5-yl)phenyl)-4-(2-(piperidin-1-yl)ethoxy)benzamide]",abundance of gp130 compared with the no drug control,gp130; 100 and 1000 μM,increased significantly
same,abundance of the gp130 band (protection from proteolysis),"gp130; SUM159 lysates, 10-1000 μM, pronase:protein=1:2000, 15 min",increased with an increasing dose
